Reference: ChEMBL document CHEMBL2203223, “Identification of novel mPGES-1 inhibitors through screening of a chemical library” (Bioorg Med Chem Lett, 2012)

Legend:
[1] = molecular target: T1, Prostaglandin E synthase (Homo sapiens) (UniProt O14684); experiment: Inhibition of microsomal PGES1 at 25 uM
T1 sequence (whole entry): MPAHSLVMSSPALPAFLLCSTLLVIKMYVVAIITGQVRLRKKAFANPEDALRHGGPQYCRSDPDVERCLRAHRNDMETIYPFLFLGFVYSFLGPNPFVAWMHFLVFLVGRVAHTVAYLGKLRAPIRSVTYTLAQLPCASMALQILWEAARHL

[2] = molecular target: T1, Prostaglandin E synthase (Homo sapiens); experiment: Inhibition of microsomal PGES1 at 10 uM
[3] = molecular target: T2, Prostaglandin E synthase (Mus musculus) (UniProt Q9JM51); experiment: Inhibition of microsomal PGES1 in mouse RAW264.7 cells assessed as inhibition of LPS-induced PGE2 production at 10 uM incubated for 1 hr prior to LPS challenge measured after 24 hrs by enzyme immunoassay; assay type: cell-based
T2 sequence (whole entry): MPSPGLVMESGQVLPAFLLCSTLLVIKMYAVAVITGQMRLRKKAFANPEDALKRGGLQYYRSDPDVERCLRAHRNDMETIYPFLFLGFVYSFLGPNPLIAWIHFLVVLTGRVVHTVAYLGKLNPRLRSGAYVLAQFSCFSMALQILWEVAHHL

[4] = molecular target: T2, Prostaglandin E synthase (Mus musculus); experiment: Inhibition of microsomal PGES1 in mouse RAW264.7 cells assessed as inhibition of LPS-induced PGE2 production at 1 uM incubated for 1 hr prior to LPS challenge measured after 24 hrs by enzyme immunoassay; assay type: cell-based

inhibition [1] [%]	inhibition [2] [%]	SMILES	also measured
> 80	–	CNC(=O)/C(=N\OC)c1ccccc1O	–
–	90	CN1C(=O)C(NC(=O)Nc2ccccc2Cl)N(C)C(=O)c2ccccc21 (racemic)	–
–	90	Cc1cccc(NC(=S)N/N=C/c2cccc([N+](=O)[O-])c2)c1	–
–	90	Cc1n[nH]c(=S)n(/N=C/c2cccc([N+](=O)[O-])c2)c1=O	–
> 80	–	O=C1Sc2ccccc2C1=O	–
–	–	O=C(Oc1ccccc1)N(NS(=O)(=O)c1ccccc1)c1ccccc1	inhibition [3]: 93.3%; inhibition [4]: 59.9%
–	90	O=C1C(=O)N(c2ccccc2)c2ccccc21	–
–	90	O=C(C=C1c2ccccc2-c2ccccc21)NNC(=O)N(c1ccccc1)c1ccccc1	–
> 80	–	CN1C(=O)C(N)NC(=O)c2ccccc21 (racemic)	–
–	90	CNC(=O)/C(=N/OC)c1ccccc1CO/N=C(/C)c1cccc(O/C(F)=C(\c2ccc(OC)cc2)C(F)(F)F)c1	–

SMILES	inhibition [1] [%]	inhibition [2] [%]	also measured
COc1ccc(OC(=O)Nc2ccccc2)cc1	> 80	–	–
